The results in this text go back to patent publication US9499550B2 (BRISTOL-MYERS SQUIBB COMPANY, priority 2012, dated 2016).

The structures appear in SMILES notation.

Assay [1] concerns HCV genotype 1b (Con1) replicon in HUH-7 cells. As to the kind of experiment: HCV replicon luciferase reporter assay, genotype 1b. It is filed as cell-based. The conditions noted are these: Hepatitis C virus, Huh-7, 72 h, HCV genotype 1b replicon luciferase assay, 3 days incubation, range class, read-out: LE_1b (EC50, range). The method in brief:
(§1)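 Replicon inhibition for both genotypes was measured as Renilla luciferase signal (EnduRen, 7.5 μM final, 2 h) after 3-day, 37° C exposure of replicon-bearing HUH-7 cells in 4% FCS DMEM, 0.5% DMSO. The 1b construct carries S1179I; the 1a H77 construct carries P1496L and S2204I. Twenty-point, 3-fold dilutions were fitted four-parametrically for EC50, and CC50 was taken from multiplexed Cell Titer-Blue.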

The test system of assay [2] is HCV genotype 1a (H77 strain) replicon in HUH-7 cells. As to the kind of experiment: HCV replicon luciferase reporter assay, genotype 1a. The conditions noted are these: Hepatitis C virus, Huh-7, 72 h, HCV genotype 1a replicon luciferase assay, 3 days incubation, range class, read-out: LE_1a (EC50, range). It is filed as cell-based. A digest of the protocol:
as §1

In the case of `CCN(C)c1cc2cc(OC)ccc2c(O[C@@H]2C[C@H]3C(=O)N[C@]4(C(=O)NS(=O)(=O)C5(CF)CC5)C[C@H]4/C=C\CC[C@H](C)C[C@@H](C)[C@H](NC(=O)OC(C)(C)C(F)(F)F)C(=O)N3C2)n1` [Compound 1136, 1,1,1-trifluoro-2-methylpropan-2-yl((2R,6S,7R,9S,13aS,14aR,16aS,Z)-2-((3-(ethyl(methyl)amino)-6-methoxyisoquinolin-1-yl)oxy)-14a-(((1-(fluoromethyl)cyclopropyl)sulfonyl)carbamoyl)-7,9-dimethyl-5,16-dioxo-1,2,3,5,6,7,8,9,10,11,13a,14,14a,15,16,16a-hexadecahydrocyclopropa[e]pyrrolo[1,2-a][1,4]diazacyclopentadecin-6-yl)carbamate], the EC50 in assay [1] and in assay [2] was greater than 87.4 nM each time.

For `CCN(C)c1cc2cc(OC)ccc2c(O[C@@H]2C[C@H]3C(=O)N[C@]4(C(=O)NS(=O)(=O)C5(CF)CC5)C[C@H]4/C=C\CC[C@@H](C)C[C@@H](C)[C@H](NC(=O)OC(C)(C)C(F)(F)F)C(=O)N3C2)n1` [Compound 1137, 1,1,1-trifluoro-2-methylpropan-2-yl((2R,6S,7R,9R,13aS,14aR,16aS,Z)-2-((3-(ethyl(methyl)amino)-6-methoxyisoquinolin-1-yl)oxy)-14a-(((1-(fluoromethyl)cyclopropyl)sulfonyl)carbamoyl)-7,9-dimethyl-5,16-dioxo-1,2,3,5,6,7,8,9,10,11,13a,14,14a,15,16,16a-hexadecahydrocyclopropa[e]pyrrolo[1,2-a][1,4]diazacyclopentadecin-6-yl)carbamate], the EC50 was less than 5.46 nM in assay [1] and 4.82 to 103 nM in assay [2].

Turning to `CCN(C)c1cc2cc(OC)ccc2c(O[C@@H]2C[C@H]3C(=O)N[C@]4(C(=O)NS(=O)(=O)C5(CF)CC5)C[C@H]4/C=C\CC[C@H](C)C[C@@H](C)[C@H](NC(=O)OC(C)(C)C(C)(F)F)C(=O)N3C2)n1` [Compound 1138, 3,3-difluoro-2-methylbutan-2-yl((2R,6S,7R,9S,13aS,14aR,16aS,Z)-2-((3-(ethyl(methyl)amino)-6-methoxyisoquinolin-1-yl)oxy)-14a-(((1-(fluoromethyl)cyclopropyl)sulfonyl)carbamoyl)-7,9-dimethyl-5,16-dioxo-1,2,3,5,6,7,8,9,10,11,13a,14,14a,15,16,16a-hexadecahydrocyclopropa[e]pyrrolo[1,2-a][1,4]diazacyclopentadecin-6-yl)carbamate], the EC50 in assay [1] and in assay [2] was greater than 87.4 nM each time.

With `CCN(C)c1cc2cc(OC)ccc2c(O[C@@H]2C[C@H]3C(=O)N[C@]4(C(=O)NS(=O)(=O)C5(CF)CC5)C[C@H]4/C=C\CC[C@@H](C)C[C@@H](C)[C@H](NC(=O)OC(C)(C)C(C)(F)F)C(=O)N3C2)n1` [Compound 1139, 3,3-difluoro-2-methylbutan-2-yl((2R,6S,7R,9R,13aS,14aR,16aS,Z)-2-((3-(ethyl(methyl)amino)-6-methoxyisoquinolin-1-yl)oxy)-14a-(((1-(fluoromethyl)cyclopropyl)sulfonyl)carbamoyl)-7,9-dimethyl-5,16-dioxo-1,2,3,5,6,7,8,9,10,11,13a,14,14a,15,16,16a-hexadecahydrocyclopropa[e]pyrrolo[1,2-a][1,4]diazacyclopentadecin-6-yl)carbamate], the EC50 in assay [1] and in assay [2] was 4.82 to 103 nM in each case.

`COc1ccc2c(O[C@@H]3C[C@H]4C(=O)N[C@]5(C(=O)NS(=O)(=O)C6(C)CC6)C[C@H]5/C=C\CC[C@H](C)C[C@@H](C)[C@H](NC(=O)OC5(C(F)(F)F)COC5)C(=O)N4C3)nc(OC)cc2c1` [Compound 1140, 3-(trifluoromethyl)oxetan-3-yl ((2R,6S,7R,9S,13aS,14aR,16aS,Z)-2-((3,6-dimethoxyisoquinolin-1-yl)oxy)-7,9-dimethyl-14a-(((1-methylcyclopropyl)sulfonyl)carbamoyl)-5,16-dioxo-1,2,3,5,6,7,8,9,10,11,13a,14,14a,15,16,16a-hexadecahydrocyclopropa[e]pyrrolo[1,2-a][1,4]diazacyclopentadecin-6-yl)carbamate]: the EC50 in assay [1] and in assay [2] was less than 5.46 nM each time.

As for `COc1ccc2c(O[C@@H]3C[C@H]4C(=O)N[C@]5(C(=O)NS(=O)(=O)C6(C)CC6)C[C@H]5/C=C\CC[C@@H](C)C[C@@H](C)[C@H](NC(=O)OC5(C(F)(F)F)COC5)C(=O)N4C3)nc(OC)cc2c1` [Compound 1141, 3-(trifluoromethyl)oxetan-3-yl ((2R,6S,7R,9R,13aS,14aR,16aS,Z)-2-((3,6-dimethoxyisoquinolin-1-yl)oxy)-7,9-dimethyl-14a-(((1-methylcyclopropyl)sulfonyl)carbamoyl)-5,16-dioxo-1,2,3,5,6,7,8,9,10,11,13a,14,14a,15,16,16a-hexadecahydrocyclopropa[e]pyrrolo[1,2-a][1,4]diazacyclopentadecin-6-yl)carbamate], the EC50 in assay [1] and in assay [2] was less than 5.46 nM throughout.

For `COc1ccc2c(O[C@@H]3C[C@H]4C(=O)N[C@]5(C(=O)NS(=O)(=O)C6(CF)CC6)C[C@H]5/C=C\CC[C@@H](C)C[C@@H](C)[C@H](NC(=O)OC(C)(C)C(C)(F)F)C(=O)N4C3)nccc2c1` [Compound 1143, 3,3-difluoro-2-methylbutan-2-yl((2R,6S,7R,9R,13aS,14aR,16aS,Z)-14a-(((1-(fluoromethyl)cyclopropyl)sulfonyl)carbamoyl)-2-((6-methoxyisoquinolin-1-yl)oxy)-7,9-dimethyl-5,16-dioxo-1,2,3,5,6,7,8,9,10,11,13a,14,14a,15,16,16a-hexadecahydrocyclopropa[e]pyrrolo[1,2-a][1,4]diazacyclopentadecin-6-yl)carbamate], the figures for the EC50 in assay [1] and in assay [2] were less than 5.46 nM and 4.82 to 103 nM, respectively.

For `COCCOc1cnc(O[C@@H]2C[C@H]3C(=O)N[C@]4(C(=O)NS(=O)(=O)C5(C)CC5)C[C@H]4/C=C\CC[C@H](C)C[C@@H](C)[C@H](NC(=O)OC(C)(C)C(F)(F)F)C(=O)N3C2)c2ccc(OC)cc12` [Compound 1144, 1,1,1-trifluoro-2-methylpropan-2-yl((2R,6S,7R,9S,13aS,14aR,16aS,Z)-2-((6-methoxy-4-(2-methoxyethoxyl)isoquinolin-1-yl)oxy)-7,9-dimethyl-14a-(((1-methylcyclopropyl)sulfonyl)carbamoyl)-5,16-dioxo-1,2,3,5,6,7,8,9,10,11,13a,14,14a,15,16,16a-hexadecahydrocyclopropa[e]pyrrolo[1,2-a][1,4]diazacyclopentadecin-6-yl)carbamate], the EC50 in assay [1] and in assay [2] was less than 5.46 nM throughout.

In the case of `COCCOc1cnc(O[C@@H]2C[C@H]3C(=O)N[C@]4(C(=O)NS(=O)(=O)C5(C)CC5)C[C@H]4/C=C\CC[C@@H](C)C[C@@H](C)[C@H](NC(=O)OC(C)(C)C(F)(F)F)C(=O)N3C2)c2ccc(OC)cc12` [Compound 1145, 1,1,1-trifluoro-2-methylpropan-2-yl((2R,6S,7R,9R,13aS,14aR,16aS,Z)-2-((6-methoxy-4-(2-methoxyethoxyl)isoquinolin-1-yl)oxy)-7,9-dimethyl-14a-(((1-methylcyclopropyl)sulfonyl)carbamoyl)-5,16-dioxo-1,2,3,5,6,7,8,9,10,11,13a,14,14a,15,16,16a-hexadecahydrocyclopropa[e]pyrrolo[1,2-a][1,4]diazacyclopentadecin-6-yl)carbamate], the EC50 in assay [1] and in assay [2] was less than 5.46 nM in each case.

For the compound `COCCOc1cnc(O[C@@H]2C[C@H]3C(=O)N[C@]4(C(=O)NS(=O)(=O)C5CC5)C[C@H]4/C=C\CC[C@H](C)C[C@@H](C)[C@H](NC(=O)OC(C)(C)C(F)(F)F)C(=O)N3C2)c2ccc(OC)cc12` [Compound 1146, 1,1,1-trifluoro-2-methylpropan-2-yl((2R,6S,7R,9S,13aS,14aR,16aS,Z)-14a-((cyclopropylsulfonyl)carbamoyl)-2-((6-methoxy-4-(2-methoxyethoxyl)isoquinolin-1-yl)oxy)-7,9-dimethyl-5,16-dioxo-1,2,3,5,6,7,8,9,10,11,13a,14,14a,15,16,16a-hexadecahydrocyclopropa[e]pyrrolo[1,2-a][1,4]diazacyclopentadecin-6-yl)carbamate], the half-maximal effective concentration (EC50) in assay [1] and in assay [2] was less than 5.46 nM each time.

Take `COCCOc1cnc(O[C@@H]2C[C@H]3C(=O)N[C@]4(C(=O)NS(=O)(=O)C5CC5)C[C@H]4/C=C\CC[C@@H](C)C[C@@H](C)[C@H](NC(=O)OC(C)(C)C(F)(F)F)C(=O)N3C2)c2ccc(OC)cc12` [Compound 1147, 1,1,1-trifluoro-2-methylpropan-2-yl((2R,6S,7R,9R,13aS,14aR,16aS,Z)-14a-((cyclopropylsulfonyl)carbamoyl)-2-((6-methoxy-4-(2-methoxyethoxyl)isoquinolin-1-yl)oxy)-7,9-dimethyl-5,16-dioxo-1,2,3,5,6,7,8,9,10,11,13a,14,14a,15,16,16a-hexadecahydrocyclopropa[e]pyrrolo[1,2-a][1,4]diazacyclopentadecin-6-yl)carbamate]: the EC50 in assay [1] and in assay [2] was less than 5.46 nM in each case.

With `COCCOc1cnc(O[C@@H]2C[C@H]3C(=O)N[C@]4(C(=O)NS(=O)(=O)C5(C)CC5)C[C@H]4/C=C\CC[C@H](C)C[C@@H](C)[C@H](NC(=O)OC(C)(C)C(C)(F)F)C(=O)N3C2)c2ccc(OC)cc12` [Compound 1148, 3,3-difluoro-2-methylbutan-2-yl((2R,6S,7R,9S,13aS,14aR,16aS,Z)-2-((6-methoxy-4-(2-methoxyethoxyl)isoquinolin-1-yl)oxy)-7,9-dimethyl-14a-(((1-methylcyclopropyl)sulfonyl)carbamoyl)-5,16-dioxo-1,2,3,5,6,7,8,9,10,11,13a,14,14a,15,16,16a-hexadecahydrocyclopropa[e]pyrrolo[1,2-a][1,4]diazacyclopentadecin-6-yl)carbamate], the EC50 in assay [1] and in assay [2] was less than 5.46 nM throughout.
